# Test results published in patent US10913757B2, “Hydroxycinnamic derivatives, methods and uses thereof” (UNIVERSIDADE DO PORTO, priority 2016, dated 2021).
# System: rat liver mitochondria (RLM) membranes
# Experiment: RLM lipid peroxidation, TBARS assay (FeSO4/H2O2/ascorbate)
# Assay type: biochemical
# Conditions: 5 μM pre-incubation, FIG. 4A
# Procedure: In an embodiment, and as an example, AntiOxCINs antioxidant performance, on the protection of lipid peroxidation of RLM membranes was determined. Two different oxidative stressor agents, FeSO4/H2O2/ascorbate and ADP/FeSO4, and two end-points, TBARS production and oxygen-consumption, respectively, have been used. MitoQ was used as reference (FIGS. 4 and 5).
# In an embodiment, the evaluation of AntiOxCINs functional mitochondrial toxicity profile was performed in rat liver mitochondria (RLM). RLM were prepared by tissue homogenization followed by differential centrifugations in ice-cold buffer containing 250 mM sucrose, 10 mM HEPES (pH 7.4), 1 mM EGTA, and 0.1% fat-free bovine serum albumin. […] The protein concentration was determined by the biuret assay using BSA as a standard.
# In an embodiment, the effect of AntiOxCINs on RLM lipid peroxidation was measured by thiobarbituric acid reactive species (TBARS) assay as follows: RLM (2 mg protein/ml) were incubated in 0.8 mL medium containing 100 mM KCl, 10 mM Tris-HCl and pH 7.6, at 37° C., supplemented with 5 mM glutamate/2.5 mM malate as substrate. […] The fluorescence of aliquots (250 μL) of the organic layer was analyzed in a plate reader (λEx=515 nm; λEm=553 nm) for TBARS. […] Data are means±SEM of three independent experiments and are expressed as % of control (control=100%).
smiles,measurement,value
"CS(=O)(=O)[O-].O=C(/C=C/c1ccc(O)c(O)c1)NCCCCCC[P+](c1ccccc1)(c1ccccc1)c1ccccc1 [AntiOxCIN2, (E)-(6-(3-(3,4-dihydroxyphenyl)prop-2-enamido)hexyl)triphenylphosphonium methanesulfonate]",prevention of mitochondria lipid peroxidation (TBARS levels),most effective
